According to US20100048596A2, “Indole Derivatives as Antitumoral Compounds” (Pharma Mar, S.A., priority 2005, published 2010):

Tests used:
P388 = conditions: literature; cited from earlier work
A-549 = conditions: literature; cited from earlier work
HT29 = assay type: cell-based; conditions: for GI50 / TGI: HT29, 48 hours exposure, SRB; for TGI: total growth inhibition (cytostatic effect)
Source text: (§1) The finality of these assays is to interrupt the growth of an “in vitro” tumor cell culture by means of a continued exhibition of the cells to the sample to be testing.
(§2) Inhibition of Cell Growth by Colorimetric Assay
(§3) A colorimetric type of assay, using sulforhodamine B (SRB) reaction has been adapted for a quantitative measurement of cell growth and viability [following the technique described by Philip Skehan et al. (1990), New calorimetric cytotoxicity assay for anticancer drug screening, J. Natl. Cancer Inst., 82:1107-1112].
(§4) This form of assay employs 96 well cell culture microplates of 9 mm diameter (Faircloth et al. Methods in cell science, (1988), 11(4), 201-205; Mosmann et al, Journal of Immunological. Methods (1983), 65(1-2), 55-63). Most of the cell lines are obtained from American Type Culture Collection (ATCC) derived from different human cancer types.
(§5) Cells are maintained in RPMI 1640 10% FBS, supplemented with 0.1 g/L penicillin and 0.1 g/L streptomycin sulphate and then incubated at 37° C., 5% CO2 and 98% humidity. For the experiments, cells were harvested from subconfluent cultures using trypsin and resuspended in fresh medium before plating.
(§6) Cells are seeded in 96 well microtiter plates, at 5×10^3 cells per well in aliquots of 195 μL medium, and they are allowed to attach to the plate surface by growing in drug free medium for 18 hours. Afterward, samples are added in aliquots of 5 μL in a ranging from 10 to 10^−8 μg/mL, dissolved in DMSO:EtOH:PBS (0.5:0.5:99). After 48 hours exposure, the antitumor effect is measured by the SRB methodology: cells are fixed by adding 50 μL of cold 50% (wt/vol) trichloroacetic acid (TCA) and incubated for 60 minutes at 4° C. Plates are washed with deionised water and dried. 100 μL of SRB solution (0.4% wt/vol in 1% acetic acid) is added to each microtiter well and incubated for 10 minutes at room temperature. Unbound SRB is removed by washing with 1% acetic acid. Plates are air dried and bound stain is solubilized with Tris buffer. Optical densities are read on an automated spectrophotometric plate reader at a single wavelength of 490 nm.
(§7) The values for mean+/−SD of data from triplicate wells are calculated. Some parameters for cellular responses can be calculated: GI=growth inhibition, TGI=total growth inhibition (cytostatic effect) and LC=cell killing (cytotoxic effect).

A549 = assay type: cell-based; conditions: for GI50 / TGI: A549, 48 hours exposure, SRB; for TGI: total growth inhibition (cytostatic effect)
Source text: as §1, §2, §3, §4, §5, §6, §7

MDA-MB-231 = assay type: cell-based; conditions: for GI50 / TGI: MDA-MB-231, 48 hours exposure, SRB; for TGI: total growth inhibition (cytostatic effect)
Source text: as §1, §2, §3, §4, §5, §6, §7

IGROV1 tumor cell line = conditions: Jiang et al. 2001; cited from earlier work
CCRF-CEM cancer lines = conditions: Jiang et al. 2001; cited from earlier work
HOP-92 cancer lines = conditions: Jiang et al. 2001; cited from earlier work
HT-29 = conditions: Sun and Sakemi 1991; cited from earlier work

| Molecule | GI50 (HT29) [nM] | TGI (HT29) [Molar] | GI50 (A549) [nM] | CC50 (MDA-MB-231) [nM] | GI50 (MDA-MB-231) [nM] | TGI (MDA-MB-231) [Molar] | further results |
| --- | --- | --- | --- | --- | --- | --- | --- |
| 6-hydroxydiscodermindole | – | – | – | – | – | – | IC50 (P388): 4.6 µg/mL; IC50 (A-549): > 5 µg/mL |
| COn1cc(C2CCNC(=NC(C)=O)N2)c2cc(Br)c(Br)cc21 (single isomer, unassigned) [Compound VI] | 473 | 9.23E−7 | 1310 | 4950 | 811 | 1.98E−6 | CC50 (HT29): 2480 nM; CC50 (A549): 1150 nM; TGI (A549): 4.05E−6 Molar |
| COn1cc(C2CCNC(=NC(C)=O)N2)c2cc(Br)ccc21 (single isomer, unassigned) [Compound IV] | 329 | 4.65E−7 | 630 | 5200 | 411 | 1.37E−6 | CC50 (HT29): 767 nM; TGI (A549): 7.12E−7 Molar |
| C1=CN(c2c[nH]c3ccccc23)C(c2c[nH]c3ccccc23)N=C1 (stereo not drawn) [compound 8, 2,3-bis(3-indolyl)pyrimidine] | – | – | – | – | – | – | GI50 (IGROV1 tumor cell line): < 10 nM |
| COc1nc(-c2c[nH]c3ccccc23)cnc1N [compound 19, 2-amino-3methoxyl-5-(3′-indolyl)pyrazine] | – | – | – | – | – | – | GI50 (CCRF-CEM cancer lines): 810 nM; GI50 (HOP-92 cancer lines): 30 nM |
| discodermindole | – | – | – | – | – | – | IC50 (P388): 1.8 µg/mL; IC50 (HT-29): 12 µg/mL; IC50 (A-549): 4.6 µg/mL |
| COn1cc(C2CCNC(=N)N2)c2cc(Br)c(Br)cc21 (single isomer, unassigned) [Compound V] | 7960 | 1.74E−5 | 8700 | – | 7960 | 2.06E−5 | – |
| CC(=O)N=C1NCCC(c2c[nH]c3ccc(Br)cc23)N1 (single isomer, unassigned) [Compound II] | 388 | 5.67E−7 | 656 | 6260 | 418 | 1.52E−6 | – |
